In ChEMBL document CHEMBL4011656, “Discovery and Optimization of Chromeno[2,3-c]pyrrol-9(2H)-ones as Novel Selective and Orally Bioavailable Phosphodiesterase 5 Inhibitors for the Treatment of Pulmonary Arterial Hypertension” (J Med Chem, 2017):
Active and inactive are the calls of the source. The rule behind the calls is not given here.

What was measured:
[1] = molecular target: cGMP-specific 3',5'-cyclic phosphodiesterase (Homo sapiens, UniProt O76074)
[2] = Oral bioavailability in rat; format: ADME, organism-based; conditions: in vivo
Rattus norvegicus [3] = experiment: Reduction in MCT-induced increase in mean pulmonary arterial pressure in Wistar rat model of monocrotaline pulmonary arterial hypertension assessed as mean pulmonary arterial pressure at 10 mg/kg, po for 3 weeks (reference value: 32.74 mmHg); format: functional
Rattus norvegicus [4] = species: Rattus norvegicus; conditions: Wistar, 10 mg/kg
[5] = Hepatic extraction ratio in rat liver microsomes; format: ADME, microsome; conditions: read-out: ERH
[6] = Half life in human microsomes; format: ADME, microsome; conditions: liver microsomes
[7] = Apparent clearance in rat liver microsomes; format: ADME, microsome; conditions: read-out: CLH(app)
[8] = Half life in rat liver microsomes; format: ADME, microsome
Liver [9] = experiment: Drug metabolism in rat liver microsomes assessed as metabolic rate; format: ADME, microsome
[10] = Hepatic clearance in human microsomes; format: ADME, microsome; conditions: liver microsomes
Liver [11] = experiment: Intrinsic clearance in rat liver microsomes; format: ADME, microsome
Liver [12] = experiment: Intrinsic clearance in human liver microsomes; format: ADME, microsome
[13] = Hepatic clearance in rat liver microsomes; format: ADME, microsome
[14] = Hepatic extraction ratio in human microsomes; format: ADME, microsome; conditions: liver microsomes, read-out: ERH
[15] = Apparent clearance in human microsomes; format: ADME, microsome; conditions: liver microsomes, read-out: CLH(app)
Liver [16] = experiment: Drug metabolism in human liver microsomes assessed as metabolic rate; format: ADME, microsome
[17] = Oral bioavailability in Sprague-Dawley rat by LC-MS/MS analysis; format: ADME, organism-based; conditions: in vivo

| SMILES | IC50 [1] [µM] | other results |
| --- | --- | --- |
| O=c1c2ccccc2oc2c(Cc3ccc(O)cc3)[nH]c(-c3cc(Cl)ccn3)c12 | > 0.1 |  |
| COC(=O)c1[nH]c(Cc2ccc(O)cc2)c2oc3ccccc3c(=O)c12 | 0.031 |  |
| O=c1c2ccccc2oc2c(Cc3ccc(O)cc3)[nH]c(-c3ccncn3)c12 | 0.056 |  |
| CC(C)N1CCN(C(=O)c2[nH]c(Cc3ccc(O)cc3)c3oc4ccccc4c(=O)c23)CC1 | > 0.1 |  |
| COc1ncccc1-c1[nH]c(Cc2ccc(O)cc2)c2oc3ccccc3c(=O)c12 | > 0.1 |  |
| O=c1c2ccccc2oc2c(Cc3ccc(O)cc3)[nH]c(-c3cccnc3)c12 | 0.077 |  |
| O=c1c2ccccc2oc2c(Cc3ccc(O)cc3)[nH]c(-c3ccc(Cl)cn3)c12 | 0.05 |  |
| O=c1c2ccccc2oc2c(Cc3ccc(O)cc3)[nH]c(-c3ccncc3Cl)c12 | > 0.1 |  |
| Cc1ccc(-c2[nH]c(Cc3ccc(O)cc3)c3oc4ccccc4c(=O)c23)cc1 | > 0.1 |  |
| CC(C)(C)Oc1ccc(Cc2[nH]c(-c3nccs3)c3c(=O)c4ccccc4oc23)cc1 | > 0.1 |  |
| O=c1c2ccccc2oc2c(Cc3ccc(O)cc3)[nH]c(-c3ccncc3)c12 | > 0.1 |  |
| CCCc1nn(C)c2c(=O)[nH]c(-c3cc(S(=O)(=O)N4CCN(C)CC4)ccc3OCC)nc12.O=C(O)CC(O)(CC(=O)O)C(=O)O [SILDENAFIL CITRATE] |  | bioavailability [2]: 41%; Activity (Rattus norvegicus [3]): 22.13 mmHg; inhibition (Rattus norvegicus [4]): Active |
| O=c1c2ccccc2oc2c(Cc3ccc(O)cc3)[nH]c(-c3cccnc3O)c12 | > 0.1 |  |
| Cc1nnc(-c2[nH]c(Cc3ccc(O)cc3)c3oc4ccccc4c(=O)c23)o1 | > 0.1 |  |
| O=c1c2ccccc2oc2c(Cc3ccc(O)cc3)[nH]c(-c3ccccc3F)c12 | 0.016 |  |
| O=C(c1[nH]c(Cc2ccc(O)cc2)c2oc3ccccc3c(=O)c12)N1CCOCC1 | > 0.1 |  |
| O=c1c2ccccc2oc2c(Cc3ccc(O)cc3)[nH]c(-c3ccccn3)c12 | 0.021 |  |
| Cc1ncc2n1-c1ccc(Cl)cc1C(c1ccccc1F)=NC2 [MIDAZOLAM] |  | hepatic extraction ratio [5]: 0.95; half-life [6]: 2.7 min; CLint scaled [7]: 1040 mL/min/kg; half-life [8]: 2.4 min; K (Liver [9]): 0.2877; CLhep predicted [10]: 19.2 mL/min/kg; CLH (Liver [11]): 574 µL/min/mg; CLH (Liver [12]): 506.4 µL/min/mg; CLhep predicted [13]: 53.2 mL/min/kg; hepatic extraction ratio [14]: 0.96; CLint scaled [15]: 488 mL/min/kg; K (Liver [16]): 0.2532 |
| O=c1c2ccccc2oc2c(Cc3ccc(O)cc3)[nH]c(-c3cccnc3Cl)c12 | > 0.1 |  |
| O=c1c2ccccc2oc2c(Cc3ccc(O)cc3)[nH]c(-c3nccs3)c12 | 0.0054 | bioavailability [17]: < 10% |
| O=c1c2ccccc2oc2c(Cc3ccc(C(F)(F)F)cc3)[nH]c(-c3nccs3)c12 | 0.03 |  |
| O=C(c1[nH]c(Cc2ccc(O)cc2)c2oc3ccccc3c(=O)c12)N1CCN(C2CC2)CC1 | > 0.1 |  |
